Reference: US20240059700A1, “NOVEL DIACYLGLYCERIDE O-ACYLTRANSFERASE 2 INHIBITORS” (Merck Sharp & Dohme LLC, priority 2020, published 2024)

Target: human DGAT2 (hDGAT2) (Homo sapiens (Human), UniProt Q96PD7)
Assay: DGAT2 Enzymatic Activity Assay
Assay type: biochemical
Settings: membrane prep of Sf-9 insect cells expressing hDGAT2; 13C18-triolein product by LC/MS/MS
How it was run: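 Membranes from Sf-9 cells infected with untagged hDGAT2 baculovirus (8 ng/μL) incubated at rt in 100 mM Tris pH 7.0, 20 mM MgCl2, 5% ethanol with 25 μM diolein and 5 μM 13C oleoyl-CoA. 13C18-triolein product quantified by LC/MS/MS against 13C21-triolein internal standard; IC50 by 4-parameter fit.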

Chain of human DGAT2 (hDGAT2) (Q96PD7 whole entry): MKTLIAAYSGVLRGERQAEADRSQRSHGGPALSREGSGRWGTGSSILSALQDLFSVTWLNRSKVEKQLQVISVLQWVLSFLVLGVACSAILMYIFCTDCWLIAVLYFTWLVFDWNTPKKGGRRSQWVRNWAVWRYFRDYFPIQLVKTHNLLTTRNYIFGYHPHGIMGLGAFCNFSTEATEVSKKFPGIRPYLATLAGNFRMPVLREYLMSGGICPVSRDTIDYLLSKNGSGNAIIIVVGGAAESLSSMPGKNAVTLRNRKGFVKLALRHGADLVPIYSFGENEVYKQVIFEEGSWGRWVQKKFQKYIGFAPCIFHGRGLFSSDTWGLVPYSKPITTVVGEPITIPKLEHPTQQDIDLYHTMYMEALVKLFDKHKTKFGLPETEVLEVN

| Structure (SMILES) | IC50 |
| --- | --- |
| CC(C)n1nc(-c2cc(OC3CCC3)ccc2F)c2ncc(C(=O)NC3(C)CS(=O)(=O)C3)cc21 [Example 109, 3-(5-cyclobutoxy-2-fluorophenyl)-1-isopropyl-N-(3-methyl-1,1-dioxidothietan-3-yl)-1H-pyrazolo[4,3-b]pyridine-6-carboxamide] | 11 nM |
| CC(C)n1nc(-c2cccc(OC(F)F)c2)c2ncc(C(=O)N[C@@]3(C)CCS(=O)(=O)C3)cc21 [Example 31, (S)-3-(3-(difluoromethoxy)phenyl)-1-isopropyl-N-(3-methyl-1,1-dioxidotetrahydrothiophen-3-yl)-1H-pyrazolo[4,3-b]pyridine-6-carboxamide] | 7.2 nM |
| CC(C)n1nc(-c2cc(OC(F)F)ccc2F)c2cnc(C(=O)NC3(C)CS(=O)(=O)C3)cc21 [Example 36, 3-(5-(difluoromethoxy)-2-fluorophenyl)-1-isopropyl-N-(3-methyl-1,1-dioxidothietan-3-yl)-1H-pyrazolo[4,3-c]pyridine-6-carboxamide] | 1.7 nM |
| CC(C)n1nc(-c2cncc(OC3CC3)c2)c2ncc(C(=O)NC3(C)CS(=O)(=O)C3)cc21 [Example 106, 3-(5-cyclopropoxypyridin-3-yl)-1-isopropyl-N-(3-methyl-1,1-dioxidothietan-3-yl)-1H-pyrazolo[4,3-b]pyridine-6-carboxamide] | 46 nM |
| CC(C)n1nc(-c2cncc(OC(F)F)c2)c2ncc(C(=O)N[C@H]3CCCC[C@@H]3O)cc21 [Example 99, 3-[5-(difluoromethoxy)-3-pyridyl]-N-[(1S,2S)-2-hydroxycyclohexyl]-1-isopropyl-pyrazolo[4,3-b]pyridine-6-carboxamide] | 52 nM |
| CC(C)n1nc(-c2cccc(OC(F)(F)F)c2)c2ncc(C(=O)NC3(C)CS(=O)(=O)C3)cc21 [Example 119, 1-isopropyl-N-(3-methyl-1,1-dioxidothietan-3-yl)-3-(3-(trifluoromethoxy)phenyl)-1H-pyrazolo[4,3-b]pyridine-6-carboxamide] | 97 nM |
| CC(C)n1nc(-c2cccc(OC(F)F)c2)c2ncc(C(=O)NC3(CO)CC(F)(F)C3)cc21 [Example 51, N-(3,3-difluoro-1-(hydroxymethyl)cyclobutyl)-3-(3-(difluoromethoxy)phenyl)-1-isopropyl-1H-pyrazolo[4,3-b]pyridine-6-carboxamide] | 17 nM |
| N[C@@H]1CCC[C@H]1NC(=O)c1cnc2c(-c3cccc(OC(F)F)c3)cn(-c3ncc(F)cn3)c2c1 [Example 21, N-((1R,2R)-2-aminocyclopentyl)-3-(3-(difluoromethoxy)phenyl)-1-(5-fluoropyrimidin-2-yl)-1H-pyrrolo[3,2-b]pyridine-6-carboxamide] | 6530 nM |
| C[C@]1(NC(=O)c2cnc3c(-c4cncc(OC(F)F)c4)cn(C4CCOCC4)c3c2)CCS(=O)(=O)C1 [Example 80, (S)-3-(5-(difluoromethoxy)pyridin-3-yl)-N-(3-methyl-1,1-dioxidotetrahydrothiophen-3-yl)-1-(tetrahydro-2H-pyran-4-yl)-1H-pyrrolo[3,2-b]pyridine-6-carboxamide] | 875 nM |
| CC(C)n1nc(-c2cccc(C#N)c2)c2ncc(C(=O)NC3(C)CS(=O)(=O)C3)cc21 [Example 108, 3-(3-cyanophenyl)-1-isopropyl-N-(3-methyl-1,1-dioxidothietan-3-yl)-1H-pyrazolo[4,3-b]pyridine-6-carboxamide] | 109 nM |
| CC(C)n1nc(-c2cncc(C3CC3)c2)c2ncc(C(=O)NC3(C)CS(=O)(=O)C3)cc21 [Example 101, 3-(5-cyclopropyl-3-pyridyl)-1-isopropyl-N-(3-methyl-1,1-dioxo-thietan-3-yl)pyrazolo[4,3-b]pyridine-6-carboxamide] | 85 nM |
| CC(O)C(C)NC(=O)c1cnc2c(-c3cccc(OC(F)F)c3)nn(C(C)C)c2c1 (stereo not drawn) [Example 45a, 3-(3-(difluoromethoxy)phenyl)-N-(3-hydroxybutan-2-yl)-1-isopropyl-1H-pyrazolo[4,3-b]pyridme-6-carboxamide] | 23 nM |
| CC1(NC(=O)c2cnc3c(-c4cccc(OC(F)F)c4)nn(C4CCOCC4)c3c2)CS(=O)(=O)C1 [Example 63, 3-(3-(difluoromethoxy)phenyl)-N-(3-methyl-1,1-dioxidothietan-3-yl)-1-(tetrahydro-2H-pyran-4-yl)-1H-pyrazolo[4,3-b]pyridine-6-carboxamide] | 18 nM |
| C[C@]1(NC(=O)c2cc3c(cn2)c(-c2cccc(OC(F)F)c2)cn3C2CCOCC2)CCS(=O)(=O)C1 [Example 82, (S)-3-(3-(difluoromethoxy)phenyl)-N-(3-methyl-1,1-dioxidotetrahydrothiophen-3-yl)-1-(tetrahydro-2H-pyran-4-yl)-1H-pyrrolo[3,2-c]pyridine-6-carboxamide] | 612 nM |
| C[C@@]1(NC(=O)c2cnc3c(-c4ccccc4Cl)cn(-c4ccc(F)cc4)c3c2)CCS(=O)(=O)C1 [Example 12, (R)-3-(2-chlorophenyl)-1-(4-fluorophenyl)-N-(3-methyl-1,1-dioxidotetrahydrothiophen-3-yl)-1H-pyrrolo[3,2-b]pyridine-6-carboxamide] | 356 nM |
| CC(C)(C)Cn1nc(-c2cccc(OC(F)F)c2)c2ncc(C(=O)NC3(C)CS(=O)(=O)C3)cc21 [Example 29, 3-(3-(difluoromethoxy)phenyl)-N-(3-methyl-1,1-dioxidothietan-3-yl)-1-neopentyl-1H-pyrazolo[4,3-b]pyridine-6-carboxamide] | 388 nM |
| CC(C)n1nc(-c2ccnc(OC(F)F)c2)c2ncc(C(=O)NC3(C)CS(=O)(=O)C3)cc21 [Example 100, 3-[2-(difluoromethoxy)-4-pyridyl]-1-isopropyl-N-(3-methyl-1,1-dioxo-thietan-3-yl)pyrazolo[4,3-b]pyridine-6-carboxamide] | 139 nM |
| CC1(NC(=O)c2cnc3c(-c4cccc(OC(F)F)c4)nn(C4CC(F)(F)C4)c3c2)CS(=O)(=O)C1 [Example 86, 1-(3,3-difluorocyclobutyl)-3-(3-(difluoromethoxy)phenyl)-N-(3-methyl-1,1-dioxidothietan-3-yl)-1H-pyrazolo[4,3-b]pyridine-6-carboxamide] | 24 nM |
| CC(C)n1nc(-c2cncc(OC(F)F)c2)c2ncc(C(=O)NC3(C)CS(=O)(=O)C3)cc21 [Example 95, 3-[5-(difluoromethoxy)-3-pyridyl]-1-isopropyl-N-(3-methyl-1,1-dioxo-thietan-3-yl)pyrazolo[4,3-b]pyridine-6-carboxamide] | 26 nM |
| N[C@@H]1CCC[C@@H]1NC(=O)c1cnc2c(-c3cccc(OC(F)F)c3)cn(-c3ncc(F)cn3)c2c1 [Example 23, N-((1S,2R)-2-aminocyclopentyl)-3-(3-(difluoromethoxy)phenyl)-1-(5-fluoropyrimidin-2-yl)-1H-pyrrolo[3,2-b]pyridine-6-carboxamide] | 173 nM |
| C[C@]1(NC(=O)c2ccc3c(-c4ccccc4Cl)cn(-c4ccc(F)cc4)c3n2)CCS(=O)(=O)C1 [Example 10, (S)-3-(2-chlorophenyl)-1-(4-fluorophenyl)-N-(3-methyl-1,1-dioxidotetrahydrothiophen-3-yl)-1H-pyrrolo[2,3-b]pyridine-6-carboxamide] | 3700 nM |
| CC(C)n1nc(-c2cccc(OC(F)F)c2)c2ncc(C(=O)NC(C)(C)C(C)(C)O)cc21 [Example 43, 3-(3-(difluoromethoxy)phenyl)-N-(3-hydroxy-2,3-dimethylbutan-2-yl)-1-isopropyl-1H-pyrazolo[4,3-b]pyridine-6-carboxamide] | 148 nM |
| CC(C)n1nc(-c2cccc(C3(C(F)(F)F)CC3)c2)c2ncc(C(=O)NC3(C)CS(=O)(=O)C3)cc21 [Example 107, 1-isopropyl-N-(3-methyl-1,1-dioxidothietan-3-yl)-3-(3-(1-(trifluoromethyl)cyclopropyl)phenyl)-1H-pyrazolo[4,3-b]pyridine-6-carboxamide] | 2280 nM |
| CCOc1ccc(F)c(-c2nn(C(C)C)c3cc(C(=O)NC4(C)CS(=O)(=O)C4)cnc23)c1 [Example 115, 3-(5-ethoxy-2-fluorophenyl)-1-isopropyl-N-(3-methyl-1,1-dioxidothietan-3-yl)-1H-pyrazolo[4,3-b]pyridine-6-carboxamide] | 3.3 nM |
| CC(C)n1nc(-c2cccc(OCC(F)F)c2)c2ncc(C(=O)NC3(C)CS(=O)(=O)C3)cc21 [Example 94, 3-[3-(2,2-difluoroethoxy)phenyl]-1-isopropyl-N-(3-methyl-1,1-dioxo-thietan-3-yl)pyrazolo[4,3-b]pyridine-6-carboxamide] | 7 nM |
| Cn1nccc1-c1nn(C2CCOCC2)c2cc(C(=O)N[C@@]3(C)CCS(=O)(=O)C3)cnc12 [Example 65, N-[(3S)-3-methyl-1,1-dioxo-thiolan-3-yl]-3-(2-methylpyrazol-3-yl)-1-tetrahydropyran-4-yl-pyrazolo[4,3-b]pyridine-6-carboxamide] | 10000 nM |
| CC(C)n1nc(-c2cccc(OC3CC3)c2)c2ncc(C(=O)NC3(C)CS(=O)(=O)C3)cc21 [Example 97, 3-[3-(cyclopropoxy)phenyl]-1-isopropyl-N-(3-methyl-1,1-dioxo-thietan-3-yl)pyrazolo[4,3-b]pyridine-6-carboxamide] | 0.9 nM |
| CC(C)n1nc(-c2cccc(S(C)(=O)=O)c2)c2ncc(C(=O)NC3(C)CS(=O)(=O)C3)cc21 [Example 102, 1-isopropyl-N-(3-methyl-1,1-dioxo-thietan-3-yl)-3-(3-methylsulfonylphenyl)pyrazolo[4,3-b]pyridine-6-carboxamide] | 7100 nM |
| CC(C)n1nc(-c2cccc(OC(F)F)c2)c2ncc(C(=O)N[C@@H]3CCC[C@H]3N3CCOCC3)cc21 [Example 41, 3-[3-(difluoromethoxy)phenyl]-1-isopropyl-N-[(1R,2R)-2-morpholinocyclopentyl]pyrazolo[4,3-b]pyridine-6-carboxamide] | 72 nM |
| CC(C)n1nc(-c2cccc(OC(F)F)c2)c2c(F)cc(C(=O)NC3(C)CS(=O)(=O)C3)cc21 [Example 33, 3-(3-(difluoromethoxy)phenyl)-4-fluoro-1-isopropyl-N-(3-methyl-1,1-dioxidothietan-3-yl)-1H-indazole-6-carboxamide] | 1 nM |
